Assay results published in ChEMBL document CHEMBL3988442, “University of Dundee, Small-Polar-MMV Screening Library” (2021).

How the values were obtained:
[1] = microbe, parasite or virus in culture; conditions: Mycobacterium tuberculosis, 96 h, read-out: pIC50 (converted)
[2] = microbe, parasite or virus in culture; conditions: Mycobacterium tuberculosis, 72 h, read-out: pIC50 (converted)

Row | SMILES | IC50 [1] [µM] | IC50 [2] [µM]
1 | CCC(=O)Nc1nnc2n(Cc3cccc(OC)c3)[nH]c(C)c1-2 | > 50.1 | > 50.1
2 | CN1CCCN(Cc2cc(F)cc(F)c2)CC1=O | 211 | 169
3 | COc1cc(-c2cccc3c2OC(CN)C3)cc(OC)c1OC (stereo not drawn) | 43.9 | 43.9
4 | CN(C)c1ccc(C(=O)N2CCCC2c2ccc(Cl)cc2)nn1 (stereo not drawn) | > 50.1 | > 50.1
5 | CCC1(CC)CN(C(=O)NCCC(C)C)CCS1(=O)=O | 407 | > 501
6 | COCCCN1CCN(c2ccccc2OC)CC1 [DIMETHOLIZINE] | > 501 | 346
7 | C[C@H](c1ccc(Cl)cc1)n1c(CCN)n[nH]c1=O | > 501 | 38.3
8 | CC(C)CC(C)N(C)Cc1nnc(-c2ccco2)o1 (stereo not drawn) | 14.9 | 11.7
9 | O=C(c1ccc(Cl)o1)N1CCN(Cc2ccco2)CC1 | 69.4 | 102
10 | CC(c1nc(COc2ccc(F)cc2)no1)S(C)(=O)=O (stereo not drawn) | 157 | 230
11 | O=C(NCCNc1ccc(C(F)(F)F)cn1)c1ccc(Cl)cc1F | 19.3 | 25.1
12 | N#CC1(C(=O)N2CCc3sccc3C2)CCCC1 | 167 | 475
13 | O=S(=O)(NCCNc1ccc(-n2cccc2)nn1)c1cccs1 | 13.4 | 14
14 | NCc1ccc(Cl)cn1 | 249 | 324
15 | O=C(c1cc(C2CCCC2)no1)N1CCCCC1 | 4.9 | 2.4
16 | O=C(CCn1cccn1)N1CCc2sccc2C1 | > 501 | 117
17 | CCc1ccc(CN2CC(N3CCOCC3)C2)o1 | 188 | 129
18 | NCCN1CCN(c2cccc(C(F)(F)F)c2)CC1 | 260 | 356
19 | COc1c(Br)cccc1CCNC(=O)c1csnn1 | > 50.1 | > 50.1
20 | NCc1nc(-c2ccc(OC(F)(F)F)cc2)no1 | 190 | 70.7
21 | CN(Cc1ccc(N)nc1)c1ncc(Cl)cn1 | 237 | 208
22 | Cc1cc(C(=O)NCC2Cn3nnc(C)c3CO2)no1 (stereo not drawn) | > 50.1 | > 50.1
23 | OC[C@@H]1CCCN1Cc1cccc(F)c1F | > 501 | > 501
24 | COC(=O)N1CC(NC(=O)c2cc(C(C)=O)c[nH]2)C1 | > 501 | > 501
25 | Cc1cc(NCCCC(F)(F)F)n2nc(C)cc2n1 | 10.2 | 15.6
26 | O=C(CCc1ccc(Br)cc1)NCCc1nnc[nH]1 | > 50.1 | > 50.1

Row | SMILES | IC50 [1] [µM] | IC50 [2] [µM]
27 | CCC[C@H]1CN(S(=O)(=O)c2ccnn2CCC)C[C@@H]1N | > 501 | 283
28 | NCCc1nc(-c2ccccn2)cs1 | 1.16 | 2.67
29 | CNCc1nc2c(s1)CCCC2 | 259 | 221
30 | O=C(NCC1CC1)c1nnc2ccc(Cl)cc2n1 | 11.4 | 5.59
31 | NCC(=O)Nc1ccc(Cl)c(F)c1 | 120 | 212
32 | CC(CNCC(F)(F)CO)c1ccccc1 (stereo not drawn) | > 501 | > 501
33 | CCOC(=O)N1CCN(Cc2nc(C3CC3)no2)CC1 | 109 | 93.9
34 | CNC(=O)COc1cccc(OCC2CC2)c1 | 188 | > 501
35 | COc1ccc(CNc2ncc(-c3cc(C)no3)c(C(C)C)n2)cc1 | > 50.1 | > 50.1
36 | O=C(NC[C@H]1CC[C@H](c2ccnc3ncnn32)CC1)C1CC1 | > 50.1 | > 50.1
37 | O=C(c1ccc(Cn2cnnn2)cc1)N1CCC(c2ccncc2)CC1 | > 50.1 | > 50.1
38 | CN(Cc1ccccc1Br)C(=O)c1nccnc1N | > 501 | > 501
39 | O=C(c1ccco1)N1CCCN(Cc2cscn2)CC1 | > 501 | > 501
40 | NC(=O)CC1CCCC1 | > 501 | > 501
41 | CC(C)Cc1cc(C(=O)NCC(O)C(F)(F)F)[nH]n1 (stereo not drawn) | 160 | 183
42 | Cc1ccc(C(C)(C)CN(C)C(=O)CCN)cc1 | > 501 | 64.1
43 | CS(=O)(=O)NCc1ccnc(Oc2ccc(F)cc2)c1 | > 501 | 154
44 | FC(F)(F)c1cccc(NCc2cccnc2)n1 | 275 | 85.5
45 | CC(CO)Sc1ccc(S(=O)(=O)C(F)F)cc1 (stereo not drawn) | 158 | 459
46 | COc1ccc(CC(=O)Nc2c(C)nc(N3CCCC3)nc2C)cc1 | > 50.1 | > 50.1
47 | COC(=O)[C@H](C)NC(=O)c1cc(-c2cccc(Cl)c2)no1 | 26 | 42.5
48 | Cc1csc(N2CCCN(C(=O)c3cnsn3)CC2)n1 | > 501 | 284
49 | Cc1cc2nc(C(C)C)cc(N(C)CC3CCCN3C)n2n1 (stereo not drawn) | > 50.1 | 9.21
50 | CCCc1ccc(S(=O)(=O)N2CCNCC2)cc1 | > 501 | 299
51 | O=C(c1cnsn1)N1CCN(c2ccccn2)CC1 | 51.4 | 84.6
52 | CCN(C(=O)CN1CCCC1Cc1ccccc1)c1ccccc1 (stereo not drawn) | > 50.1 | 44.2

Row | SMILES | IC50 [1] [µM] | IC50 [2] [µM]
53 | O=S(=O)(CCc1ccccc1)Cc1nc(C2CC2)no1 | 10.7 | 10.6
54 | CCc1ccc(NC(=O)CN2CC[C@@H](N)C2)cc1 | > 501 | 199
55 | FC(F)(F)Sc1ccccc1NCc1nc(C2CC2)no1 | > 50.1 | 15.7
56 | CC(C)n1ccc(CC(=O)N2CCCC2)n1 | > 501 | > 501
57 | CCc1cc(C)c(C(=O)Nc2ccc(C(N)=O)nc2)o1 | 69.6 | 56.5
58 | CN(C(=O)CC1=CCCCC1)C1CCCN(C2Cc3ccccc3C2)C1 (stereo not drawn) | > 50.1 | > 50.1
59 | CNC(=O)CSc1nnnn1-c1ccc(C(C)C)cc1 | 134 | 120
60 | CNCC(=O)NC(C)c1nc(-c2ccc(Br)cc2)no1 (stereo not drawn) | 261 | 197
61 | Cc1oc(-c2ccc(Cl)cc2)nc1C(=O)NC1=NCCS1 | > 50.1 | > 50.1
62 | CSc1ccccc1NC(=O)CCn1cnc(C#N)n1 | > 501 | > 501
63 | CC(C)CCN1Cc2c(C(=O)O)ncn2-c2ccccc2S1(=O)=O | > 50.1 | > 50.1
64 | CCc1nc2n(n1)CC(NCc1nc(C)c(C)o1)CC2 (stereo not drawn) | > 50.1 | > 50.1
65 | O=C(NCc1ccco1)Nc1nc2c(s1)COCC2 | > 501 | > 501
66 | CCCNC(=O)c1ccc(C(=O)OC)cc1 | > 501 | 120
67 | CN(Cc1c(F)cccc1Cl)C(=O)CNC(=O)C1CC1 | 71 | 237
68 | NC1CCCc2occc21 (stereo not drawn) | 245 | 142
69 | CN(C)C(=O)CN1CCCC1c1ccc(F)cc1 (stereo not drawn) | 143 | 96.3
70 | O=C(Nc1cc(Cl)ccc1F)C1=COCCO1 | 265 | 228
71 | CC(C)c1nccn1C1CCCN(C(=O)c2ccc3[nH]nnc3c2)C1 (stereo not drawn) | > 50.1 | > 50.1
72 | O=C(CCn1cccn1)N1CCCCCC1 | > 501 | 110
73 | Cc1cccc(-c2ccc(C(=O)N3CCSCC3)c(=O)[nH]2)c1 | > 50.1 | 36.1
74 | Nc1ccc(CNc2ccc(C(F)(F)F)nn2)cn1 | > 501 | > 501
75 | COc1cccc(CCN)n1 | 192 | 194
76 | Cc1ccc2[nH]c(=O)cc(C(=O)NCCCn3nccc3C3CC3)c2c1 | > 50.1 | 26.1
77 | Cc1ccc(N2CCN(c3ccccc3C)CC2C)nn1 (stereo not drawn) | > 50.1 | > 50.1
78 | CN(Cc1ccncc1)S(=O)(=O)c1cccs1 | > 501 | 116

Row | SMILES | IC50 [1] [µM] | IC50 [2] [µM]
79 | CCc1nc(CNc2ccc(F)cc2I)no1 | 2.44 | 3.04
80 | O=C(NCc1ccco1)N1CCN(Cc2ccc3c(c2)CCO3)CC1 | 5.53 | 11.4
81 | NS(=O)(=O)c1cccc2c1CCCN2Cc1nccs1 | > 501 | > 501
82 | COc1ccc(CN(C(=O)C2CCCS2)c2ccncc2)cc1 (stereo not drawn) | > 50.1 | > 50.1
83 | Cc1cc(C)cc(OCC(=O)N2CCOCC2)c1 | > 501 | 155
84 | CC(=O)Nc1nc(C(=O)NCc2ccc(C)s2)cs1 | 268 | 224
85 | CN(Cc1ccco1)C(=O)c1cc(C2CC2)[nH]n1 | 59.3 | 107
86 | CN(C)C(=O)c1csc2c1CCCC2 | 186 | 271
87 | CN1CCCN(C(=O)COc2cccc(Cl)c2)CC1 | > 501 | 283
88 | Cc1nc[nH]c1CN1CCCC12CCN(c1nc3ccccc3s1)CC2 | > 50.1 | 46
89 | CC(C)Nc1ncccc1C(=O)Nc1nncs1 | > 501 | > 501
90 | CCOCCC(=O)N1CCN(c2ccc(F)cc2)CC1 | 129 | 11.3
91 | CCCNC(=O)CNc1cc(F)c(OC)c(F)c1 | 326 | 166
92 | O=C(c1coc(COc2cccc3cnccc23)n1)N1CCSCC1 | > 50.1 | > 50.1
93 | CN(C)c1ccc(Br)c(S(=O)(=O)NC2CCNC2)c1 (stereo not drawn) | 263 | 232
94 | CCC(C)(C)NC(=O)CNc1ccc2c(c1)OCCO2 | 75.9 | 95.2
95 | Cc1ncsc1C(=O)NC1CCCCNC1=O (stereo not drawn) | > 501 | > 501
96 | Fc1cccc(Cl)c1CNCCOc1ccccn1 | > 50.1 | > 50.1
97 | O=C(NCCCn1ncc2ccccc21)C1CC1 | 147 | 150
98 | COCCCN(C)S(=O)(=O)c1ccc(Br)cn1 | 206 | 278
99 | O=C(CCc1cc(Cl)no1)N1CCOC(C(F)(F)F)C1 (stereo not drawn) | 134 | > 501
100 | COc1cccc2c1CCNCC2 | 348 | 271
101 | Clc1ccc(-c2nnc([C@H]3CCN(C4CCCCC4)C3)o2)cc1 | 24.2 | 7.04
102 | CC(C)(C)OCCOc1ccc(OCCO)cc1 | 161 | 101
103 | COc1cc(CCN)ccc1C | 277 | 303
104 | COc1c(C)cnc(CSc2nnc(N)s2)c1C | > 50.1 | > 50.1
